# Patent US8987256B2, “Oxo-heterocyclic substituted carboxylic acid derivatives and the use thereof” (Bayer Intellectual Property GmbH, priority 2008, dated 2015)
# Tests used:
# [1] = target: T1, Heme-free sGC (recombinant soluble guanylate cyclase) (Rattus norvegicus, UniProt P20595); assay: Stimulation of recombinant soluble guanylate cyclase (sGC) in vitro, heme-free enzyme; assay type: biochemical
# T1 construct: made in house; host or cells: baculovirus/Sf9 insect cells
# T1 sequence (P20595 1-619): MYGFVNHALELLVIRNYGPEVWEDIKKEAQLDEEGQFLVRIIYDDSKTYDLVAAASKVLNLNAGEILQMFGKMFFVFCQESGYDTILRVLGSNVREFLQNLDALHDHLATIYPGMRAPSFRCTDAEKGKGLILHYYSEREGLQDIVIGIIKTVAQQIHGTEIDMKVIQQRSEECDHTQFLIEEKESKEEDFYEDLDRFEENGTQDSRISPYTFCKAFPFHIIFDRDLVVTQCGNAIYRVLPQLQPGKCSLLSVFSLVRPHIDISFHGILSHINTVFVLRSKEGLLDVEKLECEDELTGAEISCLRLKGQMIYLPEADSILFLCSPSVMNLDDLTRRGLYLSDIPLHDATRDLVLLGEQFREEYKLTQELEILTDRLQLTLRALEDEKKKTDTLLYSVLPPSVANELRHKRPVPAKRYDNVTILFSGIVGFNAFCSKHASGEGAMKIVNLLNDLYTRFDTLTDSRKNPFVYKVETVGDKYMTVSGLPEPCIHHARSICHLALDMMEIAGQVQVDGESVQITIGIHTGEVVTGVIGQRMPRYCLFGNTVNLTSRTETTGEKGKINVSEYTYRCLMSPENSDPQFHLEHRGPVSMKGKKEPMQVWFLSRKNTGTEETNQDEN
# T1 sequence (P19686 1-690 partner): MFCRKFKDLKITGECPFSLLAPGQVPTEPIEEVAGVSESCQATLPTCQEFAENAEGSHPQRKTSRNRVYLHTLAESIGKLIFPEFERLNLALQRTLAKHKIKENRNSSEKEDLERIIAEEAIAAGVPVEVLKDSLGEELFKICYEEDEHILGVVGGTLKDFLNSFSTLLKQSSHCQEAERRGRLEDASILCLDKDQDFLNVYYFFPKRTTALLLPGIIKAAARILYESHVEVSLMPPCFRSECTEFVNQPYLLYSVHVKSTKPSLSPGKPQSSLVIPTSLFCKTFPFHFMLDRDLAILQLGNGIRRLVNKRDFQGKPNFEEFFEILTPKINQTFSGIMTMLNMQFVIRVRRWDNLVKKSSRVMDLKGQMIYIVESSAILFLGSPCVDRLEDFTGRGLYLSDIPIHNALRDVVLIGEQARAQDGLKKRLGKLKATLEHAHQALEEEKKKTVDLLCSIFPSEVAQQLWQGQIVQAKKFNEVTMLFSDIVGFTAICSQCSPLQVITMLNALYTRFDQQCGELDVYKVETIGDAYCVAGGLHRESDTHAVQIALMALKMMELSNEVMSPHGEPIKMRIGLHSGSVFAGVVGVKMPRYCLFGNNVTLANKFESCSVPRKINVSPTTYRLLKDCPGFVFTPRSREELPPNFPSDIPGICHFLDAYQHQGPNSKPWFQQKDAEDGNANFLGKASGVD
# Description: Investigations on the stimulation of recombinant soluble guanylate cyclase (sGC) by the compounds according to the invention with and without sodium nitroprusside, and with and without the heme-dependent sGC inhibitor 1H-1,2,4-oxadiazolo-(4,3a)-quinoxalin-1-one (ODQ) are carried out by the method described in detail in the following reference: M. Hoenicka, E. M. Becker, H. Apeler, T. Sirichoke, H. Schroeder, R. Gerzer and J.-P. Stasch, “Purified soluble guanylyl cyclase expressed in a baculovirus/Sf9 system: Stimulation by YC-1, nitric oxide, and carbon oxide”, J. Mol. Med. 77 (1999), 14-23. The heme-free guanylate cyclase is obtained by adding Tween 20 to the sample buffer (0.5% in the final concentration).
# (§1) The activation of sGC by a test substance is reported as n-fold stimulation of the basal activity.
# [2] = target: T2, recombinant guanylate cyclase reporter cell line (Rattus norvegicus, UniProt P20595); assay: sGC-activating activity in the CHO reporter cell in vitro; assay type: cell-based
# T2 construct: expressed in transfected cells; host or cells: CHO reporter cell line
# T2 sequence (P20595 1-619): T1 sequence (P20595 1-619)
# T2 sequence (P19686 1-690 partner): T1 sequence (P19686 1-690 partner)
# Description: The cellular action of the compounds according to the invention is determined at a recombinant guanylate cyclase reporter cell line, as described in F. Wunder et al., Anal. Biochem. 339, 104-112 (2005).
# saphenous artery rings = assay: Vasorelaxant effect in vitro (phenylephrine-contracted artery rings); design: species or system Rabbits; details: Oryctolagus cuniculus, concentration reducing phenylephrine-induced contraction by 50%
# Description: Rabbits are anesthetized and sacrificed by intravenous injection of thiopental sodium (about 50 mg/kg) and exsanguinated. The saphenous artery is removed and divided into rings 3 mm wide. The rings are mounted singly on in each case a pair of triangular hooks open at the end and made of 0.3 mm-thick special wire (Remanium®). Each ring is placed under an initial tension in 5 ml organ baths with Krebs-Henseleit solution which is at 37° C., is gassed with carbogen and has the following composition: NaCl 119 mM; KCl 4.8 mM; CaCl2×2H2O 1 mM; MgSO4×7H2O 1.4 mM; KH2PO4 1.2 mM; NaHCO3 25 mM; glucose 10 mM; bovine serum albumin 0.001%. The force of contraction is detected with Statham UC2 cells, amplified and digitized via A/D converters (DAS-1802 HC, Keithley Instruments, Munich) and recorded in parallel on chart recorders. Contractions are induced by addition of phenylephrine.
# After several (generally 4) control cycles, the substance to be investigated is added in each further run in increasing dosage, and the level of the contraction achieved under the influence of the test substance is compared with the level of the contraction reached in the last preceding run. The concentration necessary to reduce the contraction reached in the preceding control by 50% is calculated from this (IC50). The standard application volume is 5 μl. The proportion of DMSO in the bath solution corresponds to 0.1%.
# [3] = target: T3, Heme-containing sGC (recombinant soluble guanylate cyclase) (Rattus norvegicus, UniProt P20595); assay: Stimulation of recombinant soluble guanylate cyclase (sGC) in vitro, heme-containing enzyme; assay type: biochemical
# T3 construct: made in house; host or cells: baculovirus/Sf9 insect cells
# T3 sequence (P20595 1-619): T1 sequence (P20595 1-619)
# T3 sequence (P19686 1-690 partner): T1 sequence (P19686 1-690 partner)
# From the text: Hoenicka, E. M. Becker, H. Apeler, T. Sirichoke, H. Schroeder, R. Gerzer and J.-P. Stasch, “Purified soluble guanylyl cyclase expressed in a baculovirus/Sf9 system: Stimulation by YC-1, nitric oxide, and carbon oxide”, J. Mol. Med. 77 (1999), 14-23. The heme-free guanylate cyclase is obtained by adding Tween 20 to the sample buffer (0.5% in the final concentration).
# as §1
smiles,measurement,setting,value
"O=C(O)CCc1cccc(NC(=O)C(c2ccc(CN3N=C(c4ccccc4)OCC3=O)cc2)C2CCCC2)c1 (single isomer, unassigned) [Example 103, 3-{3-[(Cyclopentyl{4-[(5-oxo-2-phenyl-5,6-dihydro-4H-1,3,4-oxadiazin-4-yl)methyl]phenyl}acetyl)amino]phenyl}propanoic acid]","Stimulation (n-fold) of heme-free sGC, basal",[1]; 0.1 μM Example 103,1.1 n-fold
same,"Stimulation (n-fold) of heme-free sGC, basal",[1]; 1 μM Example 103,2.4 n-fold
same,"Stimulation (n-fold) of heme-free sGC, basal",[1]; 10 μM Example 103,13.9 n-fold
same,"Stimulation (n-fold) of heme-free sGC, basal",[1]; 100 μM Example 103,56.1 n-fold
same,"MEC (minimum effective concentration), sGC-activating activity in the CHO reporter cell",[2],10 nM
same,IC50,saphenous artery rings,120 nM
same,"Stimulation (n-fold) of heme-containing sGC, basal",[3]; 0.1 μM Example 103,1.2 n-fold
same,"Stimulation (n-fold) of heme-containing sGC, +0.1 μM DEA/NO",[3]; 0.1 μM Example 103,6.9 n-fold
same,"Stimulation (n-fold) of heme-containing sGC, +10 μM ODQ",[3]; 0.1 μM Example 103,5.8 n-fold
same,"Stimulation (n-fold) of heme-containing sGC, basal",[3]; 1 μM Example 103,1.4 n-fold
same,"Stimulation (n-fold) of heme-containing sGC, +0.1 μM DEA/NO",[3]; 1 μM Example 103,7.8 n-fold
same,"Stimulation (n-fold) of heme-containing sGC, +10 μM ODQ",[3]; 1 μM Example 103,8.5 n-fold
same,"Stimulation (n-fold) of heme-containing sGC, basal",[3]; 10 μM Example 103,6.2 n-fold
same,"Stimulation (n-fold) of heme-containing sGC, +0.1 μM DEA/NO",[3]; 10 μM Example 103,13.5 n-fold
same,"Stimulation (n-fold) of heme-containing sGC, +10 μM ODQ",[3]; 10 μM Example 103,36.8 n-fold
same,"Stimulation (n-fold) of heme-containing sGC, basal",[3]; 100 μM Example 103,22.3 n-fold
same,"Stimulation (n-fold) of heme-containing sGC, +0.1 μM DEA/NO",[3]; 100 μM Example 103,35.6 n-fold
same,"Stimulation (n-fold) of heme-containing sGC, +10 μM ODQ",[3]; 100 μM Example 103,91.8 n-fold
same,Effect of combination with the NO donor DEA/NO on sGC stimulation,[3]; combination with DEA/NO,no synergistic effect
